Test results as given in patent US12324827B2, “Combination therapy for the treatment of migraines” (The University of Chicago, priority 2019, dated 2025).
Entries after “also recorded” stand apart in the source; their conditions may differ.

Legend:
mechanical hyperalgesia = test: Acid saline-induced fibromyalgia model, hind paw withdrawal threshold by electronic von Frey; type: in vivo, female Wistar rats; details: nasal IGF-1 150 μg/dose on PD-2, PD-5, PD-8; experiments FM-7 and FM-8, n=3/group
Description: However, due to its simplicity and reproducibility, a widely-used, non-inflammatory rodent model which mimics chronic, widespread muscle pain-like behavior was utilized. This fibromyalgia model consists of two unilateral injections of acid saline into the gastrocnemius muscle which produce bilateral, long-lasting mechanical hyperalgesia for up to 4 weeks without motor deficits or tissue damage observed histologically (Sluka et al., 2001), Hind paw withdrawal thresholds obtained using an electronic von Frey device were used as a measure of “inferred pain”.
Experimental Procedures here are described utilizing intranasal IGF-1 for treatment of pain related to the acid saline-induced fibromyalgia model. […]
Testing consists of placing rats in an acrylic cage module [23 cm×24 cm×14.6 cm (W×L×H)] which rests upon an elevated wire mesh grid floor (FIG. 21). […] The force at which this response occurs is recorded automatically by the electronic device and is designated as the paw withdrawal threshold (FIG. 22). […]
Two investigators were used for all experiments. […] The second investigator recorded paw withdrawal threshold (PWT) force levels, procedures modeled after the experimental strategy reported by Martinov et al., 2013. […]
Specifically, baseline (BA) measurements of paw withdrawal threshold (PWT) were determined for six animals/experiment prior to experimental treatment. […]

[1] = Blood glucose after nose-to-brain (N2B) delivery of IGF-1; type: in vivo, Wistar rats; details: 1.0-hour after N2B IGF-1 150 μg, n=4/group

IGF-1: human recombinant IGF-1 (#191-G1; R&D Systems), 150 μg in 50 μL sodium succinate buffer, delivered nose-to-brain
hind paw withdrawal threshold / pain-related behavior (mechanical hyperalgesia): significant and continued reduction in pain-related behavior; also recorded: protection against acid-induced hind paw hyperalgesia
blood glucose level [1]: 139 ± 24 mg/dL
